From US12195760B2, “Method for enhancing proliferation capability of stem cells using ethionamide” (SAMSUNG LIFE PUBLIC WELFARE FOUNDATION, priority 2016, dated 2025)

How the values were obtained:
[1] = system: human umbilical cord mesenchymal stem cells
Description: After 72 hours, cell proliferation analysis was performed. For this purpose, a BrdU cell proliferation assay kit (Cell Signaling Technology, USA) using 5-bromo-2′-deoxyuridine (BrdU) bound during DNA synthesis in cells was used. Specifically, BrdU was added to cells, and reacted for 24 hours. Thereafter, the cells were immobilized, and DNA was denatured. Then, the cells were treated with an anti-BrdU antibody, and then reacted with a tetramethylbenzidine (TMB) substrate using a secondary antibody conjugated with horse-radish peroxidase (HRP), and an absorbance value was measured at 450 nm using an ELISA reader.

[2] = system: human umbilical cord mesenchymal stem cells; conditions: ethionamide-primed MSCs compared to control not treated
Description: More specifically, the human umbilical cord mesenchymal stem cells (2×10^5 cells) were equally divided into 1.5 ml microtubes, treated with 100 μL of phosphate-buffered saline (PBS) containing 2% FBS, treated with an antibody bound to fluorescein isothiocyanate (FITC), phycoerythrin (PE), or allophycocyanin (APC), and then reacted at room temperature for 20 minutes. […] After the reaction, an antibody reaction was neutralized with PBS containing 2% FBS, and it was then determined whether the positive and negative markers were expressed using a flow cytometer.

[3] = system: human umbilical cord mesenchymal stem cells; conditions: ethionamide-primed MSCs compared to control not treated; Oil red O, Alizarin Red S, Safranin-O; FIGS. 3A to 3C
Description: Specifically, to induce differentiation into adipocytes or osteocytes, human umbilical cord mesenchymal stem cells (1×10^5 cells) cultured in a medium treated with ethionamide were seeded in a 6-well plate, and the differentiation was induced for approximately 3 weeks using adipogenesis/osteogenesis differentiation kits (Gibco, USA) while replacing the medium with a fresh medium twice a week. Thereafter, the cells differentiated into adipocytes and osteocytes were stained with Oil red O and Alizarin Red S to check whether the cells were differentiated into adipocytes and osteocytes. Quantification of the adipocytes was carried out by completely removing the medium from differentiation culture containers, drying the culture containers, putting 100% isopropanol into the culture containers, culturing the cells at room temperature for 10 minutes, thoroughly mixing the differentiated cells with 100% isopropanol, and measuring an absorbance at 500 nm to quantify the degree of differentiation. Quantification of the osteocytes was carried out by quantifying the degree of differentiation using an Alizarin Red S staining quantification assay kit (ScienCell, USA). […]

CCc1cc(C(N)=S)ccn1 [ethionamide, 2-ethylpyridine-4-carbothioamide]
proliferation rate according to treatment time ([1]; 10 uM or 100 uM ethionamide, treated for 72 hours, FIG. 1B): most significantly enhanced | proliferation rate of the cells according to treatment concentration ([1]; ethionamide at a concentration of 50 uM or more (tested 1 to 500 μM), 72 hours, BrdU absorbance 450 nm, FIG. 1A): significantly enhanced | expression of positive markers CD44, CD73, CD90, CD105, CD166 ([2]; FIG. 2A): expressed at a similar level | expression of negative markers CD11b, CD14, CD19, CD34, CD45, HLA-DR ([2]; FIG. 2B): not expressed at a level similar to the control | differentiation into adipocytes, osteocytes, and chondrocytes [3]: well differentiated
